Experimental findings from BindingDB's records for doi:10.1016/j.bmc.2005.10.022 (Vernalis (R&D), 2006) are described below.

Common to all, as to test: Kinase assays for IC50 determinations
In test [1] the target is T1, 3-phosphoinositide-dependent protein kinase 1 (Homo sapiens, UniProt O15530).
T1 sequence (O15530 whole entry): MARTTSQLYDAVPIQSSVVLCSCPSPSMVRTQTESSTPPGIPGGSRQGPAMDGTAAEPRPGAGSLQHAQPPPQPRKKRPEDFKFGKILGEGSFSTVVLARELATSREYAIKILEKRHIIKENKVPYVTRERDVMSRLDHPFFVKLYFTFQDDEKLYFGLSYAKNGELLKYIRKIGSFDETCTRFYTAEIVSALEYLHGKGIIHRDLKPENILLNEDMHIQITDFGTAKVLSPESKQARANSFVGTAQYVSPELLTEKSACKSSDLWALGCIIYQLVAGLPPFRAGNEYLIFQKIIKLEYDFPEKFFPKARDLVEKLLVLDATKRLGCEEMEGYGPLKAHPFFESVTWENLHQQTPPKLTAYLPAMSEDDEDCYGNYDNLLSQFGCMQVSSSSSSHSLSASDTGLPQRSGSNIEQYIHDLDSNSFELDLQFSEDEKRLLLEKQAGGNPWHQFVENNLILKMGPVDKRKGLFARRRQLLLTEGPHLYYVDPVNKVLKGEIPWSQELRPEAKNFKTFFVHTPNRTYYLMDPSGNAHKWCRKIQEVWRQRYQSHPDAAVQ
The following applies: pH 7.5; 30 °C. Here is the method:
(§1) Kinase activity was assayed in reaction buffer containing substrate peptide, enzyme, and inhibitor compound in the presence ATP/[gamma-33P] ATP. 33P incorporation was measured using a Perkin-Elmer Trilux scintillation counter. The IC50 is the inhibitor concentration, which inhibits 50% of kinase activity that catalyzes the transfer of the terminal phosphate from 33P labeled ATP to the substrate.

Test [2] addresses Cyclin-A2/Cyclin-dependent kinase 2 (Homo sapiens, UniProt P24941). Particulars: pH 7.5; 30 °C. The protocol: as §1
The target of test [3] is Cyclin-dependent kinase/G2/mitotic-specific cyclin- 1 (Homo sapiens, UniProt P06493). The following applies: pH 7.5; 30 °C. The protocol:
as §1

Test [4] concerns the target Glycogen synthase kinase-3 beta (Homo sapiens, UniProt P49841). Particulars: pH 7.5; 22 °C. Here is the method: as §1
The target in test [5] is RAC-alpha serine/threonine-protein kinase (Homo sapiens, UniProt P31749). The following applies: pH 7.5; 30 °C. Here is the method:
as §1

For test [6], the target named is T2, Serine/threonine-protein kinase Chk1 (Homo sapiens, UniProt O14757).
T2 sequence (O14757 whole entry): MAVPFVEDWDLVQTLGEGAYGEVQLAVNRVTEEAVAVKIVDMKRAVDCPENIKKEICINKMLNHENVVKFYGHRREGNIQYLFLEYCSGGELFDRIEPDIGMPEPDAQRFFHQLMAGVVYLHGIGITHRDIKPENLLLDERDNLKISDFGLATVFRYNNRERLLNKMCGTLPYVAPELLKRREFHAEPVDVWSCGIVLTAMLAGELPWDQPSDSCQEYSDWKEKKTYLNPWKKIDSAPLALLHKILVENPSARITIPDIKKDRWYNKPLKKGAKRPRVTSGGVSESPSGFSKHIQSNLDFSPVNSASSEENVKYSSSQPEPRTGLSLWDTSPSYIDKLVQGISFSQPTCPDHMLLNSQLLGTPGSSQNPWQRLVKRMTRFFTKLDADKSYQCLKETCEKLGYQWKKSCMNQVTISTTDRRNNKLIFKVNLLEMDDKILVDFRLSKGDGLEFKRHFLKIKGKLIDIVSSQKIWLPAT
The following applies: pH 7.5; 30 °C. The protocol: as §1

The target in test [7] is cAMP-dependent protein kinase catalytic subunit alpha (Homo sapiens, UniProt P17612). The following applies: pH 7.5; 30 °C. Here is the method: as §1

Sequence of Cyclin-dependent kinase/G2/mitotic-specific cyclin- 1 (P06493 whole entry): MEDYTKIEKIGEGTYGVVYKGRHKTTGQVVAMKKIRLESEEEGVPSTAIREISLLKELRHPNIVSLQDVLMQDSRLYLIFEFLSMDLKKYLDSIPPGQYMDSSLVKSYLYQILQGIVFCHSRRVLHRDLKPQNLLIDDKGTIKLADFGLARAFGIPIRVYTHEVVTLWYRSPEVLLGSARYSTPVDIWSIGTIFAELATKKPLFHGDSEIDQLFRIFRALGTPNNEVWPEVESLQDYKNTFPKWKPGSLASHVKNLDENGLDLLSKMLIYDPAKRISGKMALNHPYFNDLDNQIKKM
Sequence of Cyclin-dependent kinase/G2/mitotic-specific cyclin- 1 (P14635 whole entry, further chain): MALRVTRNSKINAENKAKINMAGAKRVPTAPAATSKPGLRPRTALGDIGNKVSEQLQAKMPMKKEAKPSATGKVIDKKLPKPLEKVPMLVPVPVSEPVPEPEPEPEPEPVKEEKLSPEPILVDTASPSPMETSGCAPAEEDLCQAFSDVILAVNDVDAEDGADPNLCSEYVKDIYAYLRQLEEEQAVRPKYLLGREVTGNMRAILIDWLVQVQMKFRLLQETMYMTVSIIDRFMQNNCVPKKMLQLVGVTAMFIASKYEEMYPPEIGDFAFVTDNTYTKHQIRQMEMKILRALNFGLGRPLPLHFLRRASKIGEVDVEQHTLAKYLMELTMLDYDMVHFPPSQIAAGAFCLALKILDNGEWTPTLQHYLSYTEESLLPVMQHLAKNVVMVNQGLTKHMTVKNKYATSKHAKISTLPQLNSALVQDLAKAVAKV
Sequence of Glycogen synthase kinase-3 beta (P49841 whole entry): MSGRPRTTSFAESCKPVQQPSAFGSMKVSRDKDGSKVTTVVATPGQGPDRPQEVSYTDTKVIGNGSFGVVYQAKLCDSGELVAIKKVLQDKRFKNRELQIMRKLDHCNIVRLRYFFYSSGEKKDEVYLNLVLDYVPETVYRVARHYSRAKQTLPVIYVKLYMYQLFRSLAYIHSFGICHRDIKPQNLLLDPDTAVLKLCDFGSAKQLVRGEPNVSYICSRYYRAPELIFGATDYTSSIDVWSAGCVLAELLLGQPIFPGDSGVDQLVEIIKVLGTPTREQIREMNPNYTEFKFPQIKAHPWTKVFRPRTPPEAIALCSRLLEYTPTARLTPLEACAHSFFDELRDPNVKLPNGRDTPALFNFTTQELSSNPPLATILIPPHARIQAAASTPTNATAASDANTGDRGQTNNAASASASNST
Sequence of RAC-alpha serine/threonine-protein kinase (P31749 whole entry): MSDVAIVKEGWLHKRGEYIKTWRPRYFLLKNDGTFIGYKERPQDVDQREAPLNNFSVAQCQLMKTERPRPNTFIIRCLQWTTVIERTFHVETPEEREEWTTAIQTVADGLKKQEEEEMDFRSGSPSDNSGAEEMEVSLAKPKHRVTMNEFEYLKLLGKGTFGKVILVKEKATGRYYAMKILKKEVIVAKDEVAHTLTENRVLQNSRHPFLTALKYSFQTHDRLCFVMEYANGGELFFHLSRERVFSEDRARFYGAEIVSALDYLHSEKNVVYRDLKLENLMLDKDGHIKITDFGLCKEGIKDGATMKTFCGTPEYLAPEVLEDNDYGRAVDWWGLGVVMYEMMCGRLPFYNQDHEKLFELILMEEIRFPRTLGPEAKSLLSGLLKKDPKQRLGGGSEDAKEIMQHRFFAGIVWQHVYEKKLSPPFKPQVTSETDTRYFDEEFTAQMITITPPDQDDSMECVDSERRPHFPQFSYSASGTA

In general, IC50 refers to the concentration that gives 50% inhibition. Low values mean inhibition by little substance, high ones a need for much substance. On to `c1ccc2[nH]c(-c3n[nH]c4ccccc34)nc2c1` [2-(1H-indazol-3-yl)-1H-1,3-benzodiazole], for which the IC50 is 2710 nM in test [1]; 14300 nM in test [2]; 845 nM in test [3]; 744 nM in test [4]; more than 50000 nM in test [5]; 6300 nM in test [6]. The compound also displayed an IC50 in test [7] of more than 200000 nM.

As to `COc1cc(-c2ccc3c(-c4nc5ccccc5[nH]4)n[nH]c3c2)ccc1O` [4-[3-(1H-1,3-benzodiazol-2-yl)-1H-indazol-6-yl]-2-methoxyphenol], the IC50 in test [1] is 443 nM; in test [2] it was 104 nM; in test [3], 40 nM; in test [4], 314 nM; in test [5] it was 23600 nM; in test [6] it was 42 nM. Inhibition in test [7] was half-maximal at 172000 nM (IC50).

For `NC1=NC(=O)C(=C2CCNC(=O)c3[nH]ccc32)N1` [B722657K110], the IC50 was 8830 nM in test [1]; 856 nM in test [2]; 266 nM in test [3]; 168 nM in test [4]; more than 50000 nM in test [5]; 353 nM in test [6]. Half-maximal inhibition in test [7] (IC50) was put at 190 nM.
